The test system of data set [1] is dihydrotestosterone (DHT). The conditions noted are these: cited from earlier work.
In the next data set the test system is 5-α-reductase. The conditions noted are these: cited from earlier work.
Data set [2] in a line: In vitro skin permeation, modified Franz-type diffusion cell. The data set is classed as in vitro ADME. The conditions noted are these: human epidermis, receiver compartment, n = 5.
Experimental: An original Franz-type diffusion cell system was modified to accommodate widened vertical columns and removal of the bowl shape. The diffusion area was 0.636 cm^2 with a receiver capacity of approximately 3.0 mL. The receiver volume for each cell was individually calibrated.
Human epidermis samples were prepared according to standard protocols. […] The samples were used as a membrane between the two chambers in the Franz cells. After about 6-8 hours, fat cells were carefully removed from the full thickness skin. The skin sections were cut into 2.5×2.5 cm squares, sealed in aluminum foil and frozen at −20° C. Prior to preparation, the samples were thawed to room temperature, immersed in 60° C. water, and the epidermis was gently separated from the remaining tissue with forceps and allowed to dry.
Before being mounted on the Franz cell, each epidermal sheet was visually inspected to avoid any possible defects. Additionally, the electrical resistance of isolated epidermis was measured to ensure the integrity of the barrier membrane. Epidermis samples with a resistance above 18 kΩ/cm^3 were used for experiments.
The upper and lower parts of the Franz cell were sealed with paraffin film and fastened together by a clamp. […]
Dutasteride concentration was determined using LC/MS-MS according to the following parameters: […]
Setting [3] is: after sustained oral administration.

On to `CC(C)(C)NC(=O)[C@H]1CC[C@H]2[C@@H]3CC[C@H]4NC(=O)C=C[C@]4(C)[C@H]3CC[C@]12C` [Finasteride], for which the “Reduction of serum DHT levels” value in data set [1] (setting [3]) is recorded as 65-70%. Moreover, the “Typical reduction in DHT serum concentration” value in data set [1] (oral finasteride therapy, comparison value) is reported as 60-70%. Further, in the data set with 5-α-reductase, the “Inhibition of Type I 5-α-reductase” value was “does not inhibit”; the “Inhibition of Type II and Type III 5-α-reductase” value was “selectively inhibits”.
Take `C[C@]12C=CC(=O)N[C@@H]1CC[C@@H]1[C@@H]2CC[C@]2(C)[C@@H](C(=O)Nc3cc(C(F)(F)F)ccc3C(F)(F)F)CC[C@@H]12` [Dutasteride]: in data set [2], the “Permeated Amount After 24 hours (dutasteride)” value is “never detected”. Also, the “Suppression of DHT production” value in data set [1] (setting [3]) is on record as “up to 99%”. Further, the “Inhibition of the three 5-α-reductase isoforms” value in the data set on 5-α-reductase was “inhibits all three 5-α-reductase isoforms”.
